This is an account of results in US9796711B2, “Substituted pyrazolo[3,4-b]pyridin-6-carboxylic acids and method of use” (AbbVie S.àr.l., priority 2015, dated 2017).

By EC50 is commonly meant the concentration needed to bring the measured effect to its halfway point.

This experiment has as its target T1, ΔF508-CFTR (Homo sapiens, UniProt P13569, DEL508-508).
T1 construct: host or cells: CFBE41o-, doxycycline-inducible
The experiment in a line: CFTR cell surface levels using HRP-tagged ΔF508-CFTR expressing CFBE cells, in the presence of a co-corrector. The format is cell-based. To be noted: HRP-tagged ΔF508-CFTR expressing CFBE cells, in the presence of 3 μM co-corrector; for EC50: read-out: EC50. From the text:
Measuring CFTR Cell Surface Levels Using HRP-Tagged AF508-CFTR Expressing CFBE Cells
The HRP-tagged AF508-CFTR cell assay measures the expression of CFTR-ΔF508 at the plasma membrane. CFTR-ΔF508 has a folding defect leading to absence of protein at the plasma membrane. This assay is used to evaluate the capacity of compounds to increase the expression of CFTR-ΔF508 at the plasma membrane. The CFTR-ΔF508 is tagged with HRP (horse radish peroxidase enzyme) within the ECL4 (Extracellular loop 4) of CFTR (Phuan, P.-W. et al. Synergy-based small-molecule screen using a human lung epithelial cell line yields AF508-CFTR correctors that augment VX-809 maximal efficacy. Mol. Pharmacol. 86, 42-51 (2014)). When HRP-tagged AF508-CFTR is present at the plasma membrane, the HRP enzyme activity can be measured. The amount of CFTR-ΔF508 that can be rescued to the plasma membrane is correlated with the amount of functional enzyme that can be measured.
There are several ways to measure the capacity of compounds to rescue CFTR-ΔF508 to the plasma membrane; either compounds are evaluated on their own and the impact on plasma membrane levels is measured or compounds are evaluated in combination with a co-corrector, i.e. a compound that rescues CFTR-ΔF508 to the plasma membrane but rescue can be enhanced by addition of compounds due to a complementary mode of action.
Activity of Compounds in Combination with Co-Corrector:
For this purpose doxycycline-inducible AF508-CFTR-HRP expressing CFBE4lo-cells (obtained from Gergely Lukacs, McGill University) were maintained in MEM (Minimum Essential Medium, Gibco; 31095) supplemented with 10% fetal bovine serum (Hyclone; SV30160.03) under puromycin (3 μg/mL) and G418 selection (0.2 mg/mL). For compound testing, cells were seeded at 4000 cells/well in white 384-well plates (Greiner; 781080) in 50 μL of medium containing 0.5 μg/mL doxycycline and incubated for 68 hours at 37° C., 5% CO2. On day four, 10 μL of test compounds diluted in PBS (phosphate buffered saline) were added to the plates at a final DMSO concentration of 0.1%. In order to measure compound synergy with a co-corrector, 3 μM co-corrector (3-[(2R,4R)-4-({[1-(2,2-difluoro-1,3-benzodioxol-5-yl)cyclopropyl]carbonyl}amino)-7-methoxy-3,4-dihydro-2H-chromen-2-yl]benzoic acid) was added along with test compounds. All compound plates contained negative controls (DMSO) and positive controls (3 μM co-corrector). Cell plates were incubated at 33° C., 5% CO2 for 20 hours. On day five, the cells were washed five times with phosphate-buffered saline, and HRP activity was assayed by the addition of 50 μL/well of HRP substrate (SuperSignal™ West Pico Chemiluminescent Substrate, Thermo Scientific; 34080). After incubation for 15 minutes in the dark, the chemiluminescence was measured using a plate reader (EnVision®, Perkin Elmer). Raw data were normalized to percentage activity values using the equation: 100×(Sample−Negative control)/(Positive control−Negative Control).

T1 sequence (P13569 with tags, fused parts or gaps DEL508-508): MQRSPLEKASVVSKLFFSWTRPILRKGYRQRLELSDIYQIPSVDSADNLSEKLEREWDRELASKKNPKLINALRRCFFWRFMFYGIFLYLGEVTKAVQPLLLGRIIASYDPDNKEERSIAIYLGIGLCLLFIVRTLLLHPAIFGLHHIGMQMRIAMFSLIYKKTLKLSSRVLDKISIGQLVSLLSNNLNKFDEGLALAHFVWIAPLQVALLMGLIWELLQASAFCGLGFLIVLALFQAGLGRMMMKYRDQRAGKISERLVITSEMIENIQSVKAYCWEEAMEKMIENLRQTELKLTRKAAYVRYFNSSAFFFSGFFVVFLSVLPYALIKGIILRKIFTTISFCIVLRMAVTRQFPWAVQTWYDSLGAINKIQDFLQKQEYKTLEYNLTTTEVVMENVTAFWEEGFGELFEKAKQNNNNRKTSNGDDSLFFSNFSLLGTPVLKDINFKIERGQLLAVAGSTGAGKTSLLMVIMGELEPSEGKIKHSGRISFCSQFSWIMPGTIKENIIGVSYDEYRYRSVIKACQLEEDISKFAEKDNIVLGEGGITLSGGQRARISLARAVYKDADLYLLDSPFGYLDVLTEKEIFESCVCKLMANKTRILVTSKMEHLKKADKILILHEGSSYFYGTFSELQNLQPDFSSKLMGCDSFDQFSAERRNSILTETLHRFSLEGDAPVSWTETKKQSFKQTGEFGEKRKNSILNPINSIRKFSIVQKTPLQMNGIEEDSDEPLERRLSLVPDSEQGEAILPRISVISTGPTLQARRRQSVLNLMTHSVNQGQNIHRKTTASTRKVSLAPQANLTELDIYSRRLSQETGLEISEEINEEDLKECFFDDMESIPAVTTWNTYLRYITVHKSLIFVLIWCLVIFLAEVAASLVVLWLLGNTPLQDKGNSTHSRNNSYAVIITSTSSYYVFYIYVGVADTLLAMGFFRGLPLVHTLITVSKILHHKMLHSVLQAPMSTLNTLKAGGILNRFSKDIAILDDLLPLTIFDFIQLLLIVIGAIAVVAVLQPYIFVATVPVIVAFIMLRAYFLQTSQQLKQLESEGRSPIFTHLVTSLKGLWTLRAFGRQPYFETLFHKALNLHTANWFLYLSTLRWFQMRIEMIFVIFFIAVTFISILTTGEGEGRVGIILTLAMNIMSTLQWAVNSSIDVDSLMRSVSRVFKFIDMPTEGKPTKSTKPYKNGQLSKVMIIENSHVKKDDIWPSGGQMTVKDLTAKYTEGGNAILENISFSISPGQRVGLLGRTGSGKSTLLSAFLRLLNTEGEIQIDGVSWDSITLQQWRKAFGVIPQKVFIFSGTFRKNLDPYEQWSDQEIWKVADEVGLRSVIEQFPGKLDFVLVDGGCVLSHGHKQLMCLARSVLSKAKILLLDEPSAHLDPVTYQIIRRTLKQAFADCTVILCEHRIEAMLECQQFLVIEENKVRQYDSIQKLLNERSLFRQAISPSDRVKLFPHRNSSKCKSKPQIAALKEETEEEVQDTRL

As to `CN1CCCN(c2cc(C(=O)O)nc3c2c(C2CCC2)nn3-c2ccccc2)CC1` [compound 702, 3-cyclobutyl-4-(4-methyl-1,4-diazepan-1-yl)-1-phenyl-1H-pyrazolo[3,4-b]pyridine-6-carboxylic acid], the “% Activation” value is recorded as 214.1% and the EC50 stood at 1670 nM.

Turning to `CCOCC1(F)CCN(c2cc(C(=O)O)nc3c2c(C(C)C)nn3-c2ccc(F)cc2)CC1` [compound 666, 4-[4-(ethoxymethyl)-4-fluoropiperidin-1-yl]-1-(4-fluorophenyl)-3-(propan-2-yl)-1H-pyrazolo[3,4-b]pyridine-6-carboxylic acid], the “% Activation” value was determined as 338.35% and the EC50 was 253 nM.

As to `CN(C1CCN(c2cc(C(=O)O)nc3c2c(C2CCC2)nn3-c2ccccc2)CC1)C1COC1` [compound 735, 3-cyclobutyl-4-{4-[methyl(oxetan-3-yl)amino]piperidin-1-yl}-1-phenyl-1H-pyrazolo[3,4-b]pyridine-6-carboxylic acid], the “% Activation” value turned out to be 437.7% and the EC50 was found to be 224 nM.

Take `O=C(O)c1cc(N2CC(N3CCCC3)C2)c2c(C3CCC3)nn(-c3ccccc3)c2n1` [compound 680, 3-cyclobutyl-1-phenyl-4-[3-(pyrrolidin-1-yl)azetidin-1-yl]-1H-pyrazolo[3,4-b]pyridine-6-carboxylic acid]: the “% Activation” value is given as 236.7% and the EC50 was 1360 nM.

Turning to `O=C(O)c1cc(N2CCC(CCN3CCOCC3)CC2)c2c(C3CCC3)nn(C3CCCCC3)c2n1` [compound 807, 3-cyclobutyl-1-cyclohexyl-4-{4-[2-(morpholin-4-yl)ethyl]piperidin-1-yl}-1H-pyrazolo[3,4-b]pyridine-6-carboxylic acid], the “% Activation” value worked out at 389.35% and the EC50 is 72.5 nM.

`CC(C)CN1CCC(CN(C)c2cc(C(=O)O)nc3c2c(C2CCC2)nn3-c2ccccc2)CC1` [compound 564, 3-cyclobutyl-4-(methyl{[1-(2-methylpropyl)piperidin-4-yl]methyl}amino)-1-phenyl-1H-pyrazolo[3,4-b]pyridine-6-carboxylic acid]: the “% Activation” value is listed as 369.1% and the EC50 worked out at 2450 nM.

`CC(C)c1nn(-c2ccc(F)cc2)c2nc(C(=O)O)cc(OCCCN3CCOCC3)c12` [compound 607, 1-(4-fluorophenyl)-4-[3-(morpholin-4-yl)propoxy]-3-(propan-2-yl)-1H-pyrazolo[3,4-b]pyridine-6-carboxylic acid]: the “% Activation” value turned out to be 305.5% and the EC50 was found to be 1980 nM.

`O=C(O)c1cc(N2CCC[C@@H](N3CCCC3=O)C2)c2c(C3CCC3)nn(-c3ccccc3)c2n1` [compound 697, 3-cyclobutyl-4-[(3R)-3-(2-oxopyrrolidin-1-yl)piperidin-1-yl]-1-phenyl-1H-pyrazolo[3,4-b]pyridine-6-carboxylic acid]: the “% Activation” value amounted to 217.3% and the EC50 came to 1270 nM.

For the molecule `O=C(O)c1cc(N2CC(N3CCOCC3)C2)c2c(C3CCC3)nn(-c3ccccc3)c2n1` [compound 709, 3-cyclobutyl-4-[3-(morpholin-4-yl)azetidin-1-yl]-1-phenyl-1H-pyrazolo[3,4-b]pyridine-6-carboxylic acid], the “% Activation” value is on record as 223.9% and the EC50 was determined as 1670 nM.

Regarding `CN(C)[C@H]1CCN(c2cc(C(=O)O)nc3c2c(C2CCC2)nn3-c2ccccc2)C1` [compound 568, 3-cyclobutyl-4-[(3S)-3-(dimethylamino)pyrrolidin-1-yl]-1-phenyl-1H-pyrazolo[3,4-b]pyridine-6-carboxylic acid], the “% Activation” value was found to be 279.9% and the EC50 is 2480 nM.

For `CCOCCN1CCC(N2CCN(c3cc(C(=O)O)nc4c3c(C3CCC3)nn4-c3ccccc3)CC2)CC1` [compound 726, 3-cyclobutyl-4-{4-[1-(2-ethoxyethyl)piperidin-4-yl]piperazin-1-yl}-1-phenyl-1H-pyrazolo[3,4-b]pyridine-6-carboxylic acid], the “% Activation” value was 409.6% and the EC50 was found to be 311 nM.

Regarding `CN(C1CCN(C2CN(c3cc(C(=O)O)nc4c3c(C3CCC3)nn4-c3ccccc3)C2)CC1)C1COC1` [compound 724, 3-cyclobutyl-4-(3-{4-[methyl(oxetan-3-yl)amino]piperidin-1-yl}azetidin-1-yl)-1-phenyl-1H-pyrazolo[3,4-b]pyridine-6-carboxylic acid], the “% Activation” value is 208.5% and the EC50 worked out at 1670 nM.

As for `O=C(O)c1cc(N2CCN(C(=O)CN3CCOCC3)CC2)c2c(C3CCC3)nn(-c3ccccc3)c2n1` [compound 570, 3-cyclobutyl-4-{4-[(morpholin-4-yl)acetyl]piperazin-1-yl}-1-phenyl-1H-pyrazolo[3,4-b]pyridine-6-carboxylic acid], the “% Activation” value amounted to 254% and the EC50 was found to be 3330 nM.

As for `CC(C)c1nn(-c2ccc(F)cc2)c2nc(C(=O)O)cc(N3CCN(CCCN(C)C)CC3)c12` [compound 760, 4-{4-[3-(dimethylamino)propyl]piperazin-1-yl}-1-(4-fluorophenyl)-3-(propan-2-yl)-1H-pyrazolo[3,4-b]pyridine-6-carboxylic acid], the “% Activation” value came out at 131.6% and the EC50 was found to be 5000 nM.

Take `O=C(O)c1cc(N2CCN(CCOCCO)CC2)c2c(C3CCC3)nn(-c3ccccc3)c2n1` [compound 714, 3-cyclobutyl-4-{4-[2-(2-hydroxyethoxy)ethyl]piperazin-1-yl}-1-phenyl-1H-pyrazolo[3,4-b]pyridine-6-carboxylic acid]: the “% Activation” value is 212.5% and the EC50 is 1410 nM.

As to `COc1cc(C(=O)O)nc2c1c(C1CCC1)nn2-c1ccccc1` [compound 584, 3-cyclobutyl-4-methoxy-1-phenyl-1H-pyrazolo[3,4-b]pyridine-6-carboxylic acid], the “% Activation” value turned out to be 202.2% and the EC50 was 2880 nM.

Turning to `O=C(O)c1cc(N2CCC(CN3CCOCC3)CC2)c2c(C3CCC3)nn(C3CCCCC3)c2n1` [compound 806, 3-cyclobutyl-1-cyclohexyl-4-{4-[(morpholin-4-yl)methyl]piperidin-1-yl}-1H-pyrazolo[3,4-b]pyridine-6-carboxylic acid], the “% Activation” value worked out at 435.5% and the EC50 stood at 225 nM.

On to `CCOCCN1CCN(C2CCN(c3cc(C(=O)O)nc4c3c(C3CCC3)nn4-c3ccccc3)CC2)CC1` [compound 729, 3-cyclobutyl-4-{4-[4-(2-ethoxyethyl)piperazin-1-yl]piperidin-1-yl}-1-phenyl-1H-pyrazolo[3,4-b]pyridine-6-carboxylic acid], for which the “% Activation” value stood at 530.4% and the EC50 turned out to be 1670 nM.

As for `CC(C)c1nn(-c2ccc(F)cc2)c2nc(C(=O)O)cc(N3CCN(C4CCN(C5CC5)CC4)CC3)c12` [compound 743, 4-[4-(1-cyclopropylpiperidin-4-yl)piperazin-1-yl]-1-(4-fluorophenyl)-3-(propan-2-yl)-1H-pyrazolo[3,4-b]pyridine-6-carboxylic acid], the “% Activation” value is 330.5% and the EC50 came to 1240 nM.

In the case of `CC(C)c1nn(-c2ccc(F)cc2)c2nc(C(=O)O)cc(OCCCN3CCCCC3)c12` [compound 653, 1-(4-fluorophenyl)-4-[3-(piperidin-1-yl)propoxy]-3-(propan-2-yl)-1H-pyrazolo[3,4-b]pyridine-6-carboxylic acid], the “% Activation” value is reported as 260.3% and the EC50 amounted to 3330 nM.

For the molecule `CN(C)[C@@H]1CCN(c2cc(C(=O)O)nc3c2c(C2CCC2)nn3-c2ccccc2)C1` [compound 567, 3-cyclobutyl-4-[(3R)-3-(dimethylamino)pyrrolidin-1-yl]-1-phenyl-1H-pyrazolo[3,4-b]pyridine-6-carboxylic acid], the “% Activation” value is listed as 302.8% and the EC50 was 2110 nM.

`Cc1nn(-c2ccccc2)c2nc(C(=O)O)cc(-c3ccc(N4CCOCC4)nc3)c12` [compound 50, 3-methyl-4-[6-(morpholin-4-yl)pyridin-3-yl]-1-phenyl-1H-pyrazolo[3,4-b]pyridine-6-carboxylic acid]: the “% Activation” value turned out to be 313.2% and the concentration giving a half-maximal response (EC50) was 2120 nM.
